This note sets out measurements from patent US12344623B2, “Thiazolopyridine derivatives as adenosine receptor antagonists” (Merck Patent GmbH, priority 2019, dated 2025).

A value given as a limit tells only on which side of the number the result lay.

Common to all, as to assay type: cell-based
The target of one test is T1, human A2B receptor (Homo sapiens, UniProt P29275).
T1 construct: expressed in transfected cells; host or cells: HEK293
T1 sequence (P29275 1-332): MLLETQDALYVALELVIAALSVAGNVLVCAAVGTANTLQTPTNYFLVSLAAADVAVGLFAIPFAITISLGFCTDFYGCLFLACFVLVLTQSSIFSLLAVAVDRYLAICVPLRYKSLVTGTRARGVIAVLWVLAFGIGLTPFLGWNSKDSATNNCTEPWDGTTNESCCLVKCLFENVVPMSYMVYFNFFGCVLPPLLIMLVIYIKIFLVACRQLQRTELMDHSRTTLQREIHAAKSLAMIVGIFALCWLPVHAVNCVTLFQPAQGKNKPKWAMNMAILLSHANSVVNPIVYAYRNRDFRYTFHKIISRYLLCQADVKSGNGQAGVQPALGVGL
Put plainly: Functional A2B receptor activity, recombinant HEK293 cells, cAMP (HTRF), agonist NECA. To be noted: read-out: Functional A2B receptor activity, HEK293, cAMP, IC50. In short, it runs like this: (§1)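 Forskolin, test compounds and agonist were added together to the cells and incubated for 30 min. Cellular cAMP was then quantified by HTRF. Raw signals were normalized to an inhibitor control and a neutral DMSO control, and the normalized data were curve-fitted.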
Background: In TR-FRET formats the signal depends on donor and acceptor labels being close together.

The next test deals with T2, human A1 receptor (Homo sapiens, UniProt P30542).
T2 construct: expressed in transfected cells; host or cells: CHO
T2 sequence (P30542 1-326): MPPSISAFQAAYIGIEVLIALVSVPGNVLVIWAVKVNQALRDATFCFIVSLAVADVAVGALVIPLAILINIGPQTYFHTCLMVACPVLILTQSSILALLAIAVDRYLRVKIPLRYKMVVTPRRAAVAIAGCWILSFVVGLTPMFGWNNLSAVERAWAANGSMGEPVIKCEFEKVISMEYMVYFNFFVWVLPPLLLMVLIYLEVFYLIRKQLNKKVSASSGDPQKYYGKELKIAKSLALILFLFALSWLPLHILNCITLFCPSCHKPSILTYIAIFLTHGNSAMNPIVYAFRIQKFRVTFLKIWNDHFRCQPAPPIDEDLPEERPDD
Put plainly: Functional A1 receptor activity, recombinant CHO cells, cAMP (HTRF), forskolin, agonist CPA. The settings on record: recombinant CHO cells, forskolin, agonist CPA; read-out: Functional A1 receptor activity, CHO, cAMP, IC50. In short, it runs like this: (§2)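 Gi-coupled readout: CHO cells expressing human A1 or A3 receptor were treated with forskolin, test compound and agonist (CPA for A1, IB-MECA for A3) for 30 min; cellular cAMP was then measured by HTRF. Data were normalized to inhibitor and DMSO controls and curve-fitted.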

A further test addresses T3, human A3 receptor (Homo sapiens, UniProt P0DMS8).
T3 construct: expressed in transfected cells; host or cells: CHO
T3 sequence (P0DMS8 1-318): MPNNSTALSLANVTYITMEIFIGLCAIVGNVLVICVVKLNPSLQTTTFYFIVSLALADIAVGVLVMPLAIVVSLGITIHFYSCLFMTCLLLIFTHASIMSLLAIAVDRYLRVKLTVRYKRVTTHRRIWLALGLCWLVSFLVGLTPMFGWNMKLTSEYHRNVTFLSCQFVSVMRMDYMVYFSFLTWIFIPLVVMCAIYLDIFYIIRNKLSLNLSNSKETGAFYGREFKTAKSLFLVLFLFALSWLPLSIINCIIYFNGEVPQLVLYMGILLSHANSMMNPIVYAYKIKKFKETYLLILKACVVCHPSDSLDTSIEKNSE
As to the kind of experiment: Functional A3 receptor activity, recombinant CHO cells, cAMP (HTRF), forskolin, agonist IB-MECA. To be noted: recombinant CHO cells, forskolin, agonist IB-MECA; read-out: Functional A3 receptor activity, CHO, cAMP, IC50. The essentials:
as §2

In test [1] the target is T4, human A2A receptor (Homo sapiens, UniProt P29274). Put plainly: Human T cells, endogenous A2A receptor, cAMP, agonist NECA. The settings on record: read-out: hTcell data, cAMP, IC50. As for the experimental part: The endogenous functional activity of the Gs-coupled human A2A receptor was measured in T cells, where this receptor is highly expressed. Determination of receptor activity was done by quantification of cAMP, which is a second messenger for adenosine receptors.
In short, human pan T cells were isolated from human PBMC (MACS Pan T Cell Isolation Kit, Miltenyi Biotec) that have been derived from fresh whole blood. The T cells were seeded in 384-well microtiter plates and treated with test compounds. […] Finally, HTRF reagents (cAMP Femto Kit, CisBio) were added to the wells, and after 1 h cellular cAMP levels were determined using the ENVISION (Perkin Elmer) plate reader.
The obtained raw data were normalized against the inhibitor control and the neutral control (DMSO) and the normalized data were fitted using Genedata Screener software.

Test [2] deals with T4, human A2A receptor. As to the kind of experiment: Functional A2A receptor activity, recombinant HEK293 cells, cAMP (HTRF), agonist NECA. Also noted: expressed in transfected cells; host or cells: HEK293. The settings on record: read-out: Functional A2A receptor activity, HEK293, cAMP, IC50. The essentials:
as §1

T4 sequence (P29274 whole entry): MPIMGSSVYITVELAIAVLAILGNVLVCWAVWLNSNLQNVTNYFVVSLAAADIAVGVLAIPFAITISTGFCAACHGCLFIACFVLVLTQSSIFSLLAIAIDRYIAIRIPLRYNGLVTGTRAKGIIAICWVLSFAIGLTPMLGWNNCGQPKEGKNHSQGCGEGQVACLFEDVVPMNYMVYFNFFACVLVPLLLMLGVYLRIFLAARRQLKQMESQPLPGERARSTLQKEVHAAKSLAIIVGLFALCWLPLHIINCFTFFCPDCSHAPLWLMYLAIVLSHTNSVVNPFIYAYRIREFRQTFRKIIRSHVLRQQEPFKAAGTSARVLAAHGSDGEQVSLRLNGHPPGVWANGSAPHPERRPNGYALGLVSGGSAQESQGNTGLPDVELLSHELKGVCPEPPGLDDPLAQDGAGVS

In the case of `COc1ncc(-c2cnn(CC(F)F)c2)c2sc(NC(=O)N3CCC4(CCOCC4)C3)nc12` [Compound 74, 8-Oxa-2-aza-spiro[4.5]decane-2-carboxylic acid {7-[1-(2,2-difluoro-ethyl)-1H-pyrazol-4-yl]-4-methoxy-thiazolo[4,5-c]pyridin-2-yl}-amide], the half-maximal inhibitory concentration (IC50) on human A2B receptor was < 100 nM; at human A1 receptor, < 1000 nM; at human A3 receptor, > 1000 nM; on human A2A receptor [1], < 100 nM; at human A2A receptor [2], < 10 nM.

Consider `COC(=O)N(C)Cc1ccc(C(=O)Nc2nc3c(OC)ncc(-c4ccccc4)c3s2)cc1` [Compound 97, [4-(4-Methoxy-7-phenyl-thiazolo[4,5-c]pyridin-2-ylcarbamoyl)-benzyl]-methyl-carbamic acid methyl ester], for which the IC50 on human A2B receptor was < 100 nM; on human A1 receptor it was > 1000 nM; on human A3 receptor, > 1000 nM; at human A2A receptor [1], < 100 nM; on human A2A receptor [2] it was < 10 nM.

For the compound `COc1ncc(C2COCCO2)c2sc(NC(=O)c3ccc(C(=O)O)cc3)nc12` (stereo not shown) [Compound 161, N-(7-[1,4]Dioxan-2-yl-4-methoxy-thiazolo[4,5-c]pyridin-2-yl)-terephthalamic acid], the IC50 at human A2B receptor is < 100 nM; at human A1 receptor it was > 1000 nM; at human A3 receptor, > 1000 nM; at human A2A receptor [1], < 100 nM; on human A2A receptor [2], < 10 nM.

`COc1ncc(-c2cnn(Cc3ccccn3)c2)c2sc(NC(=O)N3CCC4(CCOCC4)C3)nc12` [Compound 69, 8-Oxa-2-aza-spiro[4.5]decane-2-carboxylic acid [4-methoxy-7-(1-pyridin-2-ylmethyl-1H-pyrazol-4-yl)-thiazolo[4,5-c]pyridin-2-yl]-amide]: the IC50 at human A2B receptor was < 10 nM; at human A1 receptor it was < 100 nM; at human A3 receptor, < 1000 nM; on human A2A receptor [1] it was < 10 nM; at human A2A receptor [2], < 10 nM.

Regarding `COc1ncc(-c2cnn(Cc3cccnc3)c2)c2sc(NC(=O)N3CCC4(CCOCC4)C3)nc12` [Compound 68, 8-Oxa-2-aza-spiro[4.5]decane-2-carboxylic acid [4-methoxy-7-(1-pyridin-3-ylmethyl-1H-pyrazol-4-yl)-thiazolo[4,5-c]pyridin-2-yl]-amide], the 50% inhibitory concentration (IC50) at human A2B receptor was < 10 nM; at human A3 receptor, > 1000 nM; at human A2A receptor [1], < 10 nM; at human A2A receptor [2] it was < 10 nM.

Turning to `COc1ncc(C2=CCOCC2)c2sc(NC(=O)c3c[nH]c(-c4ccncc4)n3)nc12` [Compound 165, 2-Pyridin-4-yl-1H-imidazole-4-carboxylic acid [7-(3,6-dihydro-2H-pyran-4-yl)-4-methoxy-thiazolo[4,5-c]pyridin-2-yl]-amide], the IC50 on human A2B receptor is < 10 nM; at human A3 receptor it was > 1000 nM; on human A2A receptor [1] it was < 10 nM; at human A2A receptor [2], < 10 nM.

As to `COc1ccc(N2CCOCC2)c2sc(NC(=O)N3CCC4(CCCO4)CC3)nc12` [drawing 219], the half-maximal inhibitory concentration (IC50) on human A2A receptor [1] was < 1000 nM.

In the case of `COc1cnc(N2CCOCC2)c2sc(NC(=O)N3CCOCC3)nc12` [drawing 223], the half-maximal inhibitory concentration (IC50) on human A2A receptor [1] was < 1000 nM.

For the compound `COc1cnc(N2CCOCC2)c2sc(NC(=O)N3CCC4(CCN(C)C4=O)CC3)nc12` [drawing 215], the IC50 at human A2A receptor [1] was < 1000 nM.

For the compound `COc1cnc(N2CCOCC2)c2sc(NC(=O)N3CCC(CO)CC3)nc12` [drawing 217], at human A2A receptor [1], the IC50 is < 1000 nM.

For the compound `COc1ncc(C2=CCOCC2)c2sc(NC(=O)c3cnc(C(=O)O)[nH]3)nc12` [Compound 168, 5-[7-(3,6-Dihydro-2H-pyran-4-yl)-4-methoxy-thiazolo[4,5-c]pyridin-2-ylcarbamoyl]-1H-imidazole-2-carboxylic acid], the IC50 on human A2B receptor was < 100 nM; at human A3 receptor, > 1000 nM; on human A2A receptor [1] it was < 100 nM; at human A2A receptor [2], < 10 nM.

With `COc1ccc(-c2ccccc2)c2sc(NC(=O)NCCN3CCCCC3)nc12` [drawing 216], the IC50 at human A2A receptor [1] was < 1000 nM.

By IC50 is commonly meant the midpoint of a concentration-inhibition curve.
